The source of these data is patent US20240391931A1 (Bristol-Myers Squibb Company, priority 2021, published 2024).

As usually defined, the EC50 is the concentration needed to bring the measured effect to its halfway point. A low value points to greater potency. As a reminder, the IC50 is the concentration that inhibits the measured activity by half.

Test [1] addresses T1, HER2 wildtype (WT) protein (Homo sapiens, UniProt P04626).
T1 construct: BT474 and N87 cell lines which endogenously overexpress the HER2 wildtype (WT) protein; endogenous in cells; host or cells: BT474, N87
The test can be described thus: HER2 signaling (pHER2 Tyr1248/total HER2 MSD) in BT474 cells. In kind it is cell-based. The conditions noted are these: 1.5 hr compound, 1% FBS. A digest of the protocol:
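BT474, N87 (HER2 WT) and NCI-H1781 (HER2 G776delinsVC) cells were treated for 1.5 h at 37° C in 1% FBS medium with compound at 0.0005–1.1 μM. pHER2 Tyr1248 was measured by MSD on whole-cell lysates and normalized to total HER2 as % DMSO. EC50 came from a variable-slope sigmoidal fit.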

A further test addresses T2, HER2 WT (Homo sapiens, UniProt P04626).
T2 construct: purchased ProQinase, Freiburg, Germany ERBB2 0108-0000-1
Put plainly: Enzymatic assay HER2 WT (method a). In kind it is biochemical. The conditions noted are these: [HER2 WT]=12.5 nM, [ATP]=25 μM, [Peptide 22]=1 μM. In short, it runs like this:
(§1)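 Initial rates over 0–3600 s, read as substrate-to-product conversion by capillary electrophoresis, were converted to percent inhibition and fitted with a variable-slope curve to give IC50. Conditions: EGFR WT 2 nM with 1 mM ATP; HER2 YVMA 5 nM or HER2 WT 12.5 nM, each with 25 μM ATP. All used 1 μM Peptide 22 in pH 7.5 HEPES/Mn/Mg buffer.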

The next test addresses HER2YVMA (Homo sapiens, UniProt P04626, INS775YVMA). Put plainly: Enzymatic assay HER2YVMA (method b). In kind it is biochemical. On the set-up: purchased Viva biotech, Shanghai, China custom purification. Particulars: [HER2YVMA]=5 nM, [ATP]=25 μM, [Peptide 22]=1 μM. A digest of the protocol:
as §1

HER2YVMA, sequence (P04626 with tags, fused parts or gaps INS775YVMA): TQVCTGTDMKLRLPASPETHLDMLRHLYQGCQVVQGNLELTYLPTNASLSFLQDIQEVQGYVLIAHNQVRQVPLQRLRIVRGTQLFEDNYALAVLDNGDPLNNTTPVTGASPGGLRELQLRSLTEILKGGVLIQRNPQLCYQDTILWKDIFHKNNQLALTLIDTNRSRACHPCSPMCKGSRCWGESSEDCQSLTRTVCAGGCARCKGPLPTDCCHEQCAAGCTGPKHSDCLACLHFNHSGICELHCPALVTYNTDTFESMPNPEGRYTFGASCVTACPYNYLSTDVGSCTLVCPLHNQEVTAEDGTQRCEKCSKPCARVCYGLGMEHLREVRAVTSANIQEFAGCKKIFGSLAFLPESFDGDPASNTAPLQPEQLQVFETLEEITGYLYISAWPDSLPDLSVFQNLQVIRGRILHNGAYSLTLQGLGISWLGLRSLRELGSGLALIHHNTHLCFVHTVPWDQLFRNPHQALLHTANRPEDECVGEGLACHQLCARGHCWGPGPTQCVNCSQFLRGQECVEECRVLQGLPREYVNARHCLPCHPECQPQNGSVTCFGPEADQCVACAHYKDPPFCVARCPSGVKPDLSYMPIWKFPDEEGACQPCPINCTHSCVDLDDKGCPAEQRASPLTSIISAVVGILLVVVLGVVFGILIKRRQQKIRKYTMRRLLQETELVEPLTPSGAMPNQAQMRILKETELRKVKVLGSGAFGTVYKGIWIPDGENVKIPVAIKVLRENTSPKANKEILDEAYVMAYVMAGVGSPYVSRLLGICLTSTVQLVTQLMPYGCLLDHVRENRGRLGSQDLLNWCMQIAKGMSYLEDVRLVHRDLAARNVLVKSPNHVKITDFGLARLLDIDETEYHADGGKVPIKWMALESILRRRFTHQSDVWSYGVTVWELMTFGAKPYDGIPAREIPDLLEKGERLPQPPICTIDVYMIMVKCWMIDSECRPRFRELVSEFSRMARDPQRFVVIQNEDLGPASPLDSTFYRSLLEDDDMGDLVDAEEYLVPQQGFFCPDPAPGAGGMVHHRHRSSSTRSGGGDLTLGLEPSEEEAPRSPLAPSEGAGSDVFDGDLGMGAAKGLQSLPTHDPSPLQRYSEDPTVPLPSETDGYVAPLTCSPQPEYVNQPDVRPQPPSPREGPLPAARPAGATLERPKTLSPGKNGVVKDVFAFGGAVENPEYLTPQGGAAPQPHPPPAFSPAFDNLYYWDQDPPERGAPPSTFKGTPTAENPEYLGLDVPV
T2 sequence (P04626 23-1255): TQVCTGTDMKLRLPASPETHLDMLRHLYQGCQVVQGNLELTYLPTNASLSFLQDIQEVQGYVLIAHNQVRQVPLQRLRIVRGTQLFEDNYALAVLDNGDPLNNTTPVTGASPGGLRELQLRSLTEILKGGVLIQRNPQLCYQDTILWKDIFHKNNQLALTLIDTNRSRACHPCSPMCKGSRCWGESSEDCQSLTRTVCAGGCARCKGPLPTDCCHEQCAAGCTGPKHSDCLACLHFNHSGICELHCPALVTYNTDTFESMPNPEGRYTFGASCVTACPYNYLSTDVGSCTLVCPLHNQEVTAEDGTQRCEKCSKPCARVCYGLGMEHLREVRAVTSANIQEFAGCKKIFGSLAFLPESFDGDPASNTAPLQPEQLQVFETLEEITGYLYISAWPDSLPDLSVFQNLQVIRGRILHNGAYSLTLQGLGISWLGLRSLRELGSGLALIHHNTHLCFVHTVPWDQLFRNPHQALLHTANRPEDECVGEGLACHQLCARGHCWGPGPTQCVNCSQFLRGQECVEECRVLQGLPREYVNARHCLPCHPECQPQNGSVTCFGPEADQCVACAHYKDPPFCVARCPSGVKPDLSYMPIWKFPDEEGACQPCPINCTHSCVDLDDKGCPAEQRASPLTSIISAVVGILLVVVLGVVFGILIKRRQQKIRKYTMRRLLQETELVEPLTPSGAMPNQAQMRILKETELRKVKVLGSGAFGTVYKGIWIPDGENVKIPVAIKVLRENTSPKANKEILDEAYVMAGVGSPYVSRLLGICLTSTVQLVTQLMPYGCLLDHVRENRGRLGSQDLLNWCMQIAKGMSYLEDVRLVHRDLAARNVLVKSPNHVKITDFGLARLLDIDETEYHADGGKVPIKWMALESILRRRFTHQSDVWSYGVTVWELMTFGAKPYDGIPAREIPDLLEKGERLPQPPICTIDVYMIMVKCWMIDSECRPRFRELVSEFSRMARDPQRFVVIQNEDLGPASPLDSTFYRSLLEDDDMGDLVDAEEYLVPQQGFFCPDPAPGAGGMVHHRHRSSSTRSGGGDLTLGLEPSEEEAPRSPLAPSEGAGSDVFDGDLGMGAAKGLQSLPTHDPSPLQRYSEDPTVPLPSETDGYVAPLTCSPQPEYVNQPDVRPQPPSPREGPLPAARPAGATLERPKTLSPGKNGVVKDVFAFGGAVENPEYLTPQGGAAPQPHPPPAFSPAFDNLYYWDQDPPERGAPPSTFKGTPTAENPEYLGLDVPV
T1 sequence (P04626 23-1255): as above

Take `Cc1ccc(Oc2ccc(Nc3ncnc4sc5c(c34)CCN(C(=O)/C=C/CN3CC=CCC3)C5)cc2C)cn1` [Compound 55]: the EC50 in test [1] was under 100 nM. The IC50 on HER2 WT and against HER2YVMA was under 100 nM throughout.

In turn, `Cc1ccc(Oc2ccc(Nc3ncnc4sc5c(c34)CN(C(=O)/C=C/CN(C)C)C5)cc2C)cn1` [Compound 99, (E)-4-(dimethylamino)-1-(4-((3-methyl-4-((6-methylpyridin-3-yl)oxy)phenyl)amino)-5,7-dihydro-6H-pyrrolo[3′,4′:4,5]thieno[2,3-d]pyrimidin-6-yl)but-2-en-1-one] came in with an EC50 in test [1] of under 100 nM. Also, the IC50 was 100 to 1000 nM at HER2 WT and under 100 nM on HER2YVMA.

Consider `O=C(/C=C/CN1CC2C(CO)C2C1)N1CCc2c(sc3ncnc(Nc4ccc(Oc5ccc6ncnn6c5)c(Cl)c4)c23)C1` (stereo not drawn) [Compound 92], for which the EC50 in test [1] was under 100 nM. The IC50 at HER2 WT and against HER2YVMA was under 100 nM each time.

In turn, `CCN1CCN(C/C=C/C(=O)N2CCc3c(sc4ncnc(Nc5ccc(Oc6ccc(C)nc6)c(C)c5)c34)C2)CC1` [Compound 46] returned an EC50 in test [1] of under 100 nM. Moreover, the IC50 on HER2 WT and against HER2YVMA was 100 to 1000 nM each time.

Consider `Cc1ccc(Oc2ccc(Nc3ncnc4sc5c(c34)CCN(C(=O)/C=C/CNC3CCOC3)C5)cc2C)cn1` (stereo not drawn) [Compound 47], for which the concentration giving a half-maximal response (EC50) in test [1] was under 100 nM. Further, the IC50 at HER2 WT and against HER2YVMA was under 100 nM throughout.

`Cc1cc(Nc2ncnc3sc4c(c23)CCN(C(=O)/C=C/CN2CC3C(CO)C3C2)C4)ccc1Oc1ccc2ncnn2c1` (stereo not drawn) [Compound 81] yielded an EC50 in test [1] of under 100 nM. Besides, the IC50 against HER2 WT and against HER2YVMA was under 100 nM throughout.

For `Cc1ccc(Oc2ccc(Nc3ncnc4sc5c(c34)CCN(C(=O)/C=C/CN3C[C@H]4CC[C@@H](C3)O4)C5)cc2C)cn1` [Compound 66], the EC50 in test [1] is under 100 nM. Moreover, the IC50 against HER2 WT and at HER2YVMA was under 100 nM in each case.

In test [1], `CN(C/C=C/C(=O)N1CCc2c(sc3ncnc(Nc4ccc(Oc5ccc6ncnn6c5)c(Cl)c4)c23)C1)C(C)(C)C` [Compound 91] yielded an EC50 of under 100 nM. The concentration for half-maximal inhibition (IC50) at HER2 WT and at HER2YVMA was under 100 nM throughout.

`Cc1ccc(Oc2ccc(Nc3ncnc4sc5c(c34)CCN(C(=O)/C=C/CN3CC(O)CO3)C5)cc2C)cn1` (stereo not drawn) [Compound 43] had a concentration giving a half-maximal response (EC50) in test [1] of 350 to 1000 nM. The IC50 against HER2 WT and at HER2YVMA was 100 to 1000 nM in each case.

In turn, `Cc1cc(Nc2ncnc3sc4c(c23)CCN(C(=O)/C=C/CN(C)C)C4)ccc1Oc1ccc2ncnn2c1` [Compound 3, (E)-1-(4-((4-([1,2,4]triazolo[1,5-a]pyridin-6-yloxy)-3-methylphenyl)amino)-5,8-dihydropyrido[4′,3′:4,5]thieno[2,3-d]pyrimidin-7(6H)-yl)-4-(dimethylamino)but-2-en-1-one] registered an EC50 in test [1] of under 100 nM. Moreover, the IC50 on HER2 WT is under 100 nM; against HER2YVMA, 100 to 1000 nM.

For `Cc1cc(Nc2ncnc3sc4c(c23)CCN(C(=O)/C=C/CN2CC(C)OC(C)C2C)C4)ccc1Oc1ccc2ncnn2c1` (stereo not drawn) [Compound 83], the EC50 in test [1] was under 100 nM. In addition, the half-maximal inhibitory concentration (IC50) against HER2 WT and on HER2YVMA was 100 to 1000 nM throughout.

The molecule `Cc1ccc(Oc2ccc(Nc3ncnc4sc5c(c34)C(C)CN(C(=O)C=CCN(C)C)C5)cc2C)cn1` (single isomer, unassigned) [Compound 106] yielded an EC50 in test [1] of under 100 nM. The 50% inhibitory concentration (IC50) at HER2 WT and on HER2YVMA was under 100 nM each time.

Take `Cc1ccc(Oc2ccc(Nc3ncnc4sc5c(c34)CCN(C(=O)/C=C/CNC3CCC3)C5)cc2C)cn1` [Compound 54]: the EC50 in test [1] is under 100 nM. For the same molecule, the IC50 on HER2 WT and against HER2YVMA was under 100 nM throughout.

For the molecule `Cc1ccc(Oc2ccc(Nc3ncnc4sc5c(c34)CCN(C(=O)/C=C/CN3CCC(O)C3)C5)cc2C)cn1` (stereo not drawn) [Compound 74], the EC50 in test [1] is under 100 nM. The IC50 against HER2 WT and on HER2YVMA was under 100 nM throughout.

In the case of `Cc1ccc(Oc2ccc(Nc3ncnc4sc5c(c34)CCN(C(=O)/C=C/CN(C)C(C)(C)C)C5)cc2C)cn1` [Compound 33], the EC50 in test [1] is under 100 nM. Also, the 50% inhibitory concentration (IC50) against HER2 WT and on HER2YVMA was under 100 nM in each case.

In turn, `Cc1ccc(Oc2ccc(Nc3ncnc4sc5c(c34)CCN(C(=O)/C=C/CNCc3ccsc3)C5)cc2C)cn1` [Compound 52] showed an EC50 in test [1] of under 100 nM. Also, the half-inhibitory concentration (IC50) at HER2 WT and on HER2YVMA was under 100 nM throughout.

In turn, `Cc1cc(Nc2ncnc3sc4c(c23)CCN(C(=O)/C=C/CN(C)C)C4)ccc1Oc1ccc2[nH]ncc2c1` [Compound 22, (E)-1-(4-((4-((1H-indazol-5-yl)oxy)-3-methylphenyl)amino)-5,8-dihydropyrido[4′,3′:4,5]thieno[2,3-d]pyrimidin-7(6H)-yl)-4-(dimethylamino)but-2-en-1-one] came in with an EC50 in test [1] of under 100 nM. Also, the IC50 against HER2 WT and against HER2YVMA was under 100 nM in each case.

In the case of `Cc1ccc(Oc2ccc(Nc3ncnc4sc5c(c34)CCN(C(=O)/C=C/CN[C@H]3CCC[C@H](O)C3)C5)cc2C)cn1` [Compound 73], the EC50 in test [1] is under 100 nM. For the same molecule, the IC50 at HER2 WT and at HER2YVMA was under 100 nM each time.

On to `Cc1ccc(Oc2ccc(Nc3ncnc4sc5c(c34)CCN(C(=O)/C=C/CN3CCn4cc(C(F)(F)F)nc4C3)C5)cc2C)cn1` [Compound 61], for which the half-maximal effective concentration (EC50) in test [1] is 350 to 1000 nM. For the same molecule, the half-maximal inhibitory concentration (IC50) on HER2 WT and against HER2YVMA was 1000 to 10000 nM in each case.

In turn, `Cc1ccc(Oc2ccc(Nc3ncnc4[nH]c5c(c34)CN(C(=O)/C=C/CN(C)C)CC5)cc2C)cn1` [Compound 97, (E)-4-(dimethylamino)-1-(4-((3-methyl-4-((6-methylpyridin-3-yl)oxy)phenyl)amino)-5,7,8,9-tetrahydro-6H-pyrido[3′,4′:4,5]pyrrolo[2,3-d]pyrimidin-6-yl)but-2-en-1-one] had an EC50 in test [1] of under 100 nM. The IC50 on HER2 WT and against HER2YVMA was under 100 nM in each case.

In turn, `Cc1ccc(Oc2ccc(Nc3ncnc4sc5c(c34)CCN(C(=O)/C=C/CN(C)C)CC5)cc2C)cn1` [Compound 100, (E)-4-(dimethylamino)-1-(4-((3-methyl-4-((6-methylpyridin-3-yl)oxy)phenyl)amino)-8,9-dihydro-5H-pyrimido[5′,4′:4,5]thieno[2,3-d]azepin-7(6H)-yl)but-2-en-1-one] had an EC50 in test [1] of under 100 nM. Moreover, the IC50 against HER2 WT and against HER2YVMA was 100 to 1000 nM throughout.

Regarding `CNC(=O)CNC/C=C/C(=O)N1CCc2c(sc3ncnc(Nc4ccc(Oc5ccc(C)nc5)c(C)c4)c23)C1` [Compound 39], in test [1], the EC50 fell in the range of 100 to 350 nM. Further, the IC50 on HER2 WT and at HER2YVMA was under 100 nM each time.

In the case of `C=CC(=O)N1CCc2[nH]c3ncnc(Nc4ccc(Oc5ccc6ncnn6c5)c(C)c4)c3c2C1` [Compound 102, 1-(4-((4-([1,2,4]triazolo[1,5-a]pyridin-6-yloxy)-3-methylphenyl)amino)-5,7,8,9-tetrahydro-6H-pyrido[3′,4′:4,5]pyrrolo[2,3-d]pyrimidin-6-yl)prop-2-en-1-one], in test [1], the concentration for a half-maximal effect (EC50) is under 100 nM. For the same molecule, the IC50 on HER2 WT and against HER2YVMA was under 100 nM each time.

`CC(=O)N1CCN(C/C=C/C(=O)N2CCc3c(sc4ncnc(Nc5ccc(Oc6ccc(C)nc6)c(C)c5)c34)C2)CC1` [Compound 51]: the EC50 in test [1] lay within 100 to 350 nM. The IC50 was under 100 nM on HER2 WT and 100 to 1000 nM against HER2YVMA.
